Measured values reported in patent publication US7585839B2, “Medical uses of intercellular communication facilitating compounds” (Zealand Pharma A/S, priority 2001, dated 2009).

System: ROS 17/2.8 cells
Experiment: Intercellular calcium waves after mechanical stimulation, ROS 17/2.8 cells
Format: cell-based, rat
Conditions: 48 hours hypoxia 3-6% O2; 10^−8 M, 10 minutes; 2.2 cells before
Procedure: ROS 17/2.8 cells: Cells were cultured in 100 mm dishes at 37° C. with 5% CO2 and medium change every 2-3 days. ROS medium (all reagents obtained from Life Technologies): MEM (Cat.No. 31095) supplemented with 10% heat-inactivated calf serum (Cat.No. 16170), 1% NEAA (Cat.No. 11140), 1% Sodium Pyruvate (Cat.No. 11360), 1% L-Glutamine (Cat.No. 25030) and 0.1% Penicillin/Streptomycin (Cat,No. 15140). For video imaging experiments, cells were plated on coverslips at 2-3×10^5 cells/coverslip and cultured for 2-3 days before use.
The cells cultured on coverslips were loaded with 5 μM fura-2-AM (Molecular Probes, Cat.No. F-1221), for 30 minutes at 37° C., and incubated in fresh medium for 20 minutes. Coverslips were then affixed to a PDMI-2 culture chamber (Medical Systems Corp.), maintained at 37° C. with superfused CO2, on a Zeiss Axiovert microscope. Intercellular calcium waves were induced by mechanical stimulation of a single cell using a borosilicate glass micro pipette affixed to an Eppendorf 5171 micromanipulator. Imaging was performed using a MetaMorph imaging system (Universal Imaging). The excitation light (340 and 380 nm) was provided by a monochromator (T.I.L.L. Photonics GmbH). Images were acquired with an intensified CCD camera (Dage MTI) and digitized with a Matrox MVP image processing board.

With “Ac-D-Tyr-D-Pro-D-4Hyp-Gly-D-Ala-Gly-NH2 [Compound 2]” the “average number of cells in the calcium wave” value was 5.4 cells.
